In PubChem BioAssay AID248 (DTP/NCI, 2004):
Toxic doses and inconclusive results are not listed. Rule as the data show it: active = T/C of 150% or more; inactive = T/C below 125%.

Test system: L1210 leukemia ip in BDF1 mice, survival T/C
Test: NCI In Vivo Anticancer Drug Screen. Data for tumor model L1210 Leukemia (intraperitoneal) in B6D2F1 (BDF1) mice
Details: endpoint: mean survival time, higher = longer survival
Procedure, shortened: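 Survival endpoint. Drug-treated group vs vehicle group, expressed as T divided by C. Tumor passaged by transplantation.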

[1] = dose: 100.0 mg/kg/injection, schedule: Q04DX002 (ip), vehicle: saline
[2] = dose: 200.0 mg/kg/injection, schedule: Q04DX002 (ip), vehicle: saline
[3] = dose: 100.0 mg/kg/injection, schedule: Q01DX001 (ip), vehicle: saline
[4] = dose: 200.0 mg/kg/injection, schedule: Q01DX001 (ip), vehicle: saline
[5] = dose: 400.0 mg/kg/injection, schedule: Q01DX001 (ip), vehicle: saline
[6] = dose: 100.0 mg/kg/injection, schedule: Q01DX009 (ip), vehicle: saline with Tween-80
[7] = dose: 200.0 mg/kg/injection, schedule: Q01DX009 (ip), vehicle: saline with Tween-80
[8] = dose: 100.0 mg/kg/injection, schedule: Q04DX003 (ip), vehicle: saline with Tween-80
[9] = dose: 200.0 mg/kg/injection, schedule: Q04DX003 (ip), vehicle: saline with Tween-80
[10] = dose: 400.0 mg/kg/injection, schedule: Q04DX003 (ip), vehicle: saline with Tween-80
[11] = dose: 100.0 mg/kg/injection, schedule: Q01DX009 (ip), vehicle: saline
[12] = dose: 100.0 mg/kg/injection, schedule: Q04DX003 (ip), vehicle: saline
[13] = dose: 200.0 mg/kg/injection, schedule: Q01DX009 (ip), vehicle: saline
[14] = dose: 200.0 mg/kg/injection, schedule: Q04DX003 (ip), vehicle: saline
[15] = dose: 400.0 mg/kg/injection, schedule: Q01DX009 (ip), vehicle: saline
[16] = dose: 400.0 mg/kg/injection, schedule: Q04DX003 (ip), vehicle: saline
[17] = dose: 100.0 mg/kg/injection, schedule: Q01DX001 (ip), vehicle: carboxymethylcellulose (CMC)
[18] = dose: 200.0 mg/kg/injection, schedule: Q01DX001 (ip), vehicle: carboxymethylcellulose (CMC)
[19] = dose: 400.0 mg/kg/injection, schedule: Q01DX001 (ip), vehicle: carboxymethylcellulose (CMC)

Measured: T/C

CN=C(N)c1ccc(N=C(N)c2ccc(C(N)=Nc3ccc(C(N)=NC)cc3)c(Cl)c2)cc1
inactive: dose: 7.5 mg/kg/injection, schedule: Q01DX Z (oral), vehicle: saline 101 % of control | dose: 15.0 mg/kg/injection, schedule: Q01DX Z (oral), vehicle: saline 98 % of control | dose: 30.0 mg/kg/injection, schedule: Q01DX Z (oral), vehicle: saline 101 % of control | dose: 60.0 mg/kg/injection, schedule: Q01DX Z (oral), vehicle: saline 101 % of control

O=C1C=CC(=O)C2C3c4ccccc4C(c4ccccc43)C12 (stereo unspecified)
inactive: dose: 100.0 mg/kg/injection, schedule: Q01DX001 (ip), vehicle: saline with Tween-80 93 % of control | [1] 93 % of control | dose: 200.0 mg/kg/injection, schedule: Q01DX001 (ip), vehicle: saline with Tween-80 108 % of control | [2] 101 % of control | dose: 400.0 mg/kg/injection, schedule: Q01DX001 (ip), vehicle: saline with Tween-80 100 % of control | dose: 400.0 mg/kg/injection, schedule: Q04DX002 (ip), vehicle: saline 90 % of control

CC(=O)N1C(CO)C(O)C(O)C1n1cnc2c(N)ncnc21 (stereo unspecified)
inactive: [3] 106 % of control | [4] 96 % of control | [5] 96 % of control

COc1ccc(C)cc1NC(=O)Oc1ccc2c(C)cc(=O)oc2c1
inactive: [6] 96 % of control | [7] 96 % of control

O=C(O)CCCc1ccc(Br)cc1
inactive: [8] 96 % of control | [9] 92 % of control | [10] 93 % of control

O=c1[nH]c2ccccc2nc1C(Cl)Cl
inactive: dose: 100.0 mg/kg/injection, schedule: Q04DX003 (ip), vehicle: Klucel (hydroxypropylcellulose) (HPC) 115 % of control

c1ccn2cncc2c1
inactive: dose: 75.0 mg/kg/injection, schedule: Q01DX001 (ip), vehicle: saline 95 % of control | dose: 150.0 mg/kg/injection, schedule: Q01DX001 (ip), vehicle: saline 106 % of control | dose: 300.0 mg/kg/injection, schedule: Q01DX001 (ip), vehicle: saline 102 % of control

CCc1c(O)c2c(c(O)c1C(C)=O)C(=O)c1c(cc(O)c(C(=O)O)c1C(=O)O)C2=O
inactive: [8] 100 % of control | [9] 100 % of control

Cc1cccc(CNCC(=O)O)c1
inactive: [11] 105 % of control | [12] 92 % of control | [13] 92 % of control | [14] 98 % of control | [15] 105 % of control | [16] 98 % of control

CN(C=O)c1ccccc1C(=O)O
inactive: [8] 97 % of control | [9] 97 % of control | [10] 100 % of control

O=[N+]([O-])c1ccc(Cl)c(CNc2ncnc3c2ncn3C2CCCCO2)c1 (stereo unspecified)
inactive: [8] 102 % of control | [9] 92 % of control | [10] 102 % of control

CC[n+]1c(COCCOc2ccccc2)sc2cc3c(cc21)OCO3
inactive: [3] 101 % of control

NCC(=O)NCCCCCCCCCCNC(=O)CN
inactive: dose: 10.0 mg/kg/injection, schedule: Q01DX Z (ip), vehicle: saline 98 % of control | dose: 30.0 mg/kg/injection, schedule: Q01DX Z (ip), vehicle: saline 95 % of control | dose: 100.0 mg/kg/injection, schedule: Q01DX Z (ip), vehicle: saline 98 % of control

CCCNC(=O)C1C2C=CC(CC2)C1C(=O)NCCC (stereo unspecified)
inactive: [8] 92 % of control | [9] 100 % of control | [10] 96 % of control

O=C(O)CCC(NC(=O)c1ccccc1C(=O)O)C(=O)O (stereo unspecified)
inactive: [17] 94 % of control | [18] 94 % of control | [19] 90 % of control

c1ccc(N2CCN(c3ccccn3)CC2)nc1
inactive: dose: 50.0 mg/kg/injection, schedule: Q01DX009 (ip), vehicle: saline with Tween-80 92 % of control | [6] 99 % of control | [7] 89 % of control

COc1ccc(CN(C(C)=O)c2cc(C)c([N+](=O)[O-])cc2OC)cc1OC
inactive: [11] 90 % of control | [12] 93 % of control | [13] 94 % of control | [14] 100 % of control | [15] 96 % of control | [16] 98 % of control

CC1CCCN(C(=O)/C=C/c2ccccc2)C1 (stereo unspecified)
inactive: dose: 50.0 mg/kg/injection, schedule: Q04DX002 (ip), vehicle: saline 104 % of control | dose: 100.0 mg/kg/injection, schedule: Q04DX002 (ip), vehicle: Klucel (hydroxypropylcellulose) (HPC) 91 % of control | [1] 93 % of control | dose: 200.0 mg/kg/injection, schedule: Q04DX002 (ip), vehicle: Klucel (hydroxypropylcellulose) (HPC) 95 % of control | [2] 97 % of control | dose: 400.0 mg/kg/injection, schedule: Q04DX002 (ip), vehicle: Klucel (hydroxypropylcellulose) (HPC) 95 % of control

O=C1CCC2CC1CCC2=O
inactive: dose: 18.75 mg/kg/injection, schedule: Q01DX009 (ip), vehicle: Klucel (hydroxypropylcellulose) (HPC) 101 % of control | dose: 18.75 mg/kg/injection, schedule: Q04DX003 (ip), vehicle: Klucel (hydroxypropylcellulose) (HPC) 101 % of control | dose: 37.5 mg/kg/injection, schedule: Q01DX009 (ip), vehicle: Klucel (hydroxypropylcellulose) (HPC) 101 % of control | dose: 37.5 mg/kg/injection, schedule: Q04DX003 (ip), vehicle: Klucel (hydroxypropylcellulose) (HPC) 97 % of control | dose: 75.0 mg/kg/injection, schedule: Q01DX009 (ip), vehicle: Klucel (hydroxypropylcellulose) (HPC) 98 % of control | dose: 75.0 mg/kg/injection, schedule: Q04DX003 (ip), vehicle: Klucel (hydroxypropylcellulose) (HPC) 97 % of control

O=[N+]([O-])C1C(O)CCCC1O (stereo unspecified)
inactive: [3] 102 % of control | [4] 102 % of control | [5] 105 % of control

N#CCc1cnc2ccccc2n1
inactive: dose: 6.25 mg/kg/injection, schedule: Q01DX009 (ip), vehicle: saline with Tween-80 96 % of control | dose: 12.5 mg/kg/injection, schedule: Q01DX009 (ip), vehicle: saline with Tween-80 98 % of control | dose: 12.5 mg/kg/injection, schedule: Q04DX003 (ip), vehicle: saline with Tween-80 94 % of control | dose: 25.0 mg/kg/injection, schedule: Q01DX009 (ip), vehicle: saline with Tween-80 101 % of control | dose: 25.0 mg/kg/injection, schedule: Q04DX003 (ip), vehicle: saline with Tween-80 96 % of control

CC1(C)c2ccccc2N(CCCN)c2ccccc21
inactive: dose: 3.25 mg/kg/injection, schedule: Q01DX001 (ip), vehicle: saline 93 % of control | dose: 6.5 mg/kg/injection, schedule: Q01DX001 (ip), vehicle: saline 93 % of control | dose: 13.0 mg/kg/injection, schedule: Q01DX001 (ip), vehicle: saline 96 % of control | dose: 50.0 mg/kg/injection, schedule: Q01DX001 (ip), vehicle: saline 95 % of control | [3] 106 % of control

CC1C(=O)OC2CC[N+]3(CC(=O)c4ccc(Br)cc4)CC=C(COC(=O)C(C)(O)C1(C)O)C23 (stereo unspecified)
inactive: [12] 104 % of control | [14] 102 % of control | [16] 87 % of control

c1ccc(Cn2nnc(-c3ccccc3)n2)cc1
inactive: [12] 97 % of control | [14] 94 % of control | [16] 89 % of control

CCCCCCCCC1NC1CCCCCCCC (stereo unspecified)
inactive: dose: 25.0 mg/kg/injection, schedule: Q04DX002 (ip), vehicle: saline with Tween-80 98 % of control | dose: 50.0 mg/kg/injection, schedule: Q04DX002 (ip), vehicle: saline with Tween-80 88 % of control | dose: 100.0 mg/kg/injection, schedule: Q04DX002 (ip), vehicle: other 100 % of control | dose: 100.0 mg/kg/injection, schedule: Q04DX002 (ip), vehicle: saline with Tween-80 100 % of control | dose: 200.0 mg/kg/injection, schedule: Q04DX002 (ip), vehicle: other 96 % of control

SCc1ccc(Br)cc1
inactive: [17] 104 % of control | [18] 98 % of control | [19] 104 % of control

NC1=NC(c2ccccc2)N(c2ccccc2Cl)C(N)=N1 (stereo unspecified)
inactive: dose: 75.0 mg/kg/injection, schedule: Q01DX001 (ip), vehicle: Klucel (hydroxypropylcellulose) (HPC) 97 % of control | dose: 150.0 mg/kg/injection, schedule: Q01DX001 (ip), vehicle: Klucel (hydroxypropylcellulose) (HPC) 94 % of control
